The target in assay [1] is T1, IRAK4 (Homo sapiens, UniProt Q9NWZ3).
T1 construct: purchased CARNA Bioscience 09-145
T1 sequence (Q9NWZ3 1-460): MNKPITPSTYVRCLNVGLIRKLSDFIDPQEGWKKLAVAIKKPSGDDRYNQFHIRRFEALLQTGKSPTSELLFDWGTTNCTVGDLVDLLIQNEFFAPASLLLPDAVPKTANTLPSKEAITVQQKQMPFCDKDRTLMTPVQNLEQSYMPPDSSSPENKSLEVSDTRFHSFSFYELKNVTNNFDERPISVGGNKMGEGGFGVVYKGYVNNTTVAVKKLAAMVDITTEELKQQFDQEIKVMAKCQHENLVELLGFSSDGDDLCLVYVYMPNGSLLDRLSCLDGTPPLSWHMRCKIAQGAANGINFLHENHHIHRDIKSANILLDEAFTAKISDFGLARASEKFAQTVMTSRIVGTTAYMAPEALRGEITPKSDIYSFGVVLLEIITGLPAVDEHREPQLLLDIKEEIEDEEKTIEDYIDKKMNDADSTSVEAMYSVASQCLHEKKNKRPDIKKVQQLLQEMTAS
Nature of the assay: IRAK-4 activity inhibition assay (Caliper, Peptide 8, 37 μM ATP). The format is biochemical. Particulars: 3.5 nM IRAK4, 1.5 μM Peptide 8, 37 μM ATP, 28° C. 40 minutes; read-out: IRAK-4 activity inhibition IC50.

The subject of assay [2] is LPS induced TNFα production in THP-1 cells. Nature of the assay: LPS induced THP-1 cell cytokine production assay, TNFα (HTRF). The format is cell-based. Particulars: Homo sapiens. On the procedure: (§1) Provided compounds were also assayed in an LPS (Lipopolysacharide) induced THP-1 cell cytokine (TNFα and IL8) production assay. The protocol for this assay was as follows below. THP-1 cells from ATCC (TIB-202) were cultured in RPMI Medium 1640 (Invitrogen, Cat No. […] LPS-EK ultra pure (Invivogen, Cat No. tlrl-peklps) was used to induce IL8 and TNFα production, that was detected in the cell culture supernatant by IL8 HTRF kit (Cisbio, Cat No. 62IL8PEB) and TNFα HTRF kit (Cisbio, Cat No. 62[…]), as per manufacturer instructions. Cells were cultured in 96 well assay plates at 100,000 cells per well, and compounds diluted in final 0.3% DMSO were pre-incubated with cells for 1 hour prior to stimulation with 300 ng/mL LPS. […] The compound numbers correspond to the compound numbers in Table 1.

Assay [3] deals with LPS induced IL8 production in THP-1 cells. Nature of the assay: LPS induced THP-1 cell cytokine production assay, IL8 (HTRF). The format is cell-based. Particulars: Homo sapiens. The method, then:
as §1

The mark [4] stands for this setting: THP-1 cells, 300 ng/mL LPS, 1 hour pre-incubation, supernatant at 5 hours, read-out: TNFα production IC50.
The mark [5] stands for this setting: THP-1 cells, 300 ng/mL LPS, 1 hour pre-incubation, supernatant at 5 hours / 16 hours, read-out: IL8 production IC50.

The structures appear in SMILES notation. pIC50: −log10 of the molar value. Where two headings read alike, the source gives them in different places. Bounds are passed on as bounds.

For `CN(CC(=O)N1CCCC1)[C@H]1CC[C@H](Nc2ncnc3sc4c(c23)CCC4)CC1` [Compound I-124, 2-[methyl[4-([7-thia-9,11-diazatricyclo[6.4.0.0[2,6]]dodeca-1(12),2(6),8,10-tetraen-12-yl]amino)cyclohexyl]amino]-1-(pyrrolidin-1-yl)ethan-1-one], the negative logarithm of the IC50 (pIC50) in assay [1] was more than 5.30; in assay [2] (setting [4]), 5.30 to 6.00; in assay [3] (setting [5]), 6.00 to 6.30. The like results for `CN(CC(=O)N1CCCC1)[C@H]1CC[C@H](Oc2ncnc3sc4c(c23)CCC4)CC1` [Compound I-133] were, in that order, more than 5.30, 5.30 to 6.00 and 5.30 to 6.00. Regarding `CN(C)[C@H]1CC[C@H](Nc2nc(Nc3ccccc3)nc3sc4c(c23)CCC4)CC1` [Compound I-201, 12-N-[4-(dimethylamino)cyclohexyl]-10-N-phenyl-7-thia-9,11-diazatricyclo[6.4.0.0[2,6]]dodeca-1(8),2(6),9,11-tetraene-10,12-diamine], the pIC50 in assay [2] (setting [4]) and in assay [3] (setting [5]) was 5.30 to 6.00 each time. Regarding `CN(C)[C@H]1CC[C@H](Nc2ncnc3sc4c(c23)CCC4)CC1` [Compound I-12, trans-N^1-(6,7-dihydro-5H-cyclopenta[4,5]thieno[2,3-d]pyrimidin-4-yl)-N^4,N^4-dimethylcyclohexane-1,4-diamine], the negative-log IC50 (pIC50) in assay [2] (THP-1, read-out: TNFα production IC50) was 6.00 to 6.30; in assay [3] (THP-1, read-out: IL8 production IC50), 6.00 to 6.30. For `CN(C)CCN1CCN(c2ncnc3sc4c(c23)CCC4)CC1` [Compound I-150, 2-(4-(6,7-dihydro-5H-cyclopenta[4,5]thieno[2,3-d]pyrimidin-4-yl)piperazin-1-yl)-N,N-dimethylethanamine], the negative logarithm of the IC50 (pIC50) in assay [1] was 4.30 to 4.70. On to `c1ccc(CCN[C@H]2CC[C@H](Nc3ncnc4sc5c(c34)CCC5)CC2)cc1` [Compound I-115, 1-N-(2-phenylethyl)-4-N-[7-thia-9,11-diazatricyclo[6.4.0.0^[2,6]]dodeca-1(12),2(6),8,10-tetraen-12-yl]cyclohexane-1,4-diamine], for which, in assay [1], the pIC50 is more than 5.30. The same measure, in the same setting: then `Cc1sc2ncnc(N3CCC(C(=O)NCc4ccc(S(N)(=O)=O)cc4)CC3)c2c1C` [Compound I-25], with 4.70 to 5.30. On the same count and under the same terms, the same measure for `CCC1CCc2c(sc3ncnc(N4CCC(C(N)=O)CC4)c23)C1` (stereo not shown) [Compound I-17]: 4.70 to 5.30; for `c1nc(NC2CCOCC2)c2c3c(sc2n1)CCC3` [Compound I-8]: 4.30 to 4.70; for `c1nc(OCCN2CCNCC2)c2c3c(sc2n1)CCC3` [Compound I-140, 4-(2-(piperazin-1-yl)ethoxy)-6,7-dihydro-5H-cyclopenta[4,5]thieno[2,3-d]pyrimidine]: 4.30 to 4.70. The same measure, in the same setting: the same measure for `Cc1sc2ncnc(N3CCC(C(=O)Nc4ccc(C#N)c(Cl)c4)CC3)c2c1C` [Compound I-31]: 4.70 to 5.30; for `c1ccc(CCCN[C@H]2CC[C@H](Nc3ncnc4sc5c(c34)CCC5)CC2)cc1` [Compound I-119, (1r,4r)-N1-(6,7-dihydro-5H-cyclopenta[4,5]thieno[2,3-d]pyrimidin-4-yl)-N4-(3-phenylpropyl)cyclohexane-1,4-diamine]: more than 5.30; for `CCC1CCc2c(sc3ncnc(N[C@H]4CC[C@H](N(C)C)CC4)c23)C1` (stereo partly drawn) [Compound I-55, trans-N^1-(7-ethyl-5,6,7,8-tetrahydrobenzo[4,5]thieno[2,3-d]pyrimidin-4-yl)-N^4,N^4-dimethylcyclohexane-1,4-diamine]: more than 5.30. For the molecule `CN(Cc1cccc(C(=O)O)c1)[C@H]1CC[C@H](Nc2ncnc3sc4c(c23)CCC4)CC1` [Compound I-167, 3-([methyl[4-([7-thia-9,11-diazatricyclo[6.4.0.0^[2,6]]dodeca-1(8),2(6),9,11-tetraen-12-yl]amino)cyclohexyl]amino]methyl)benzoic acid], in assay [1], the pIC50 is more than 5.30. As for `Cc1sc2ncnc(N[C@H]3CC[C@H](N)CC3)c2c1C` [Compound I-57, trans-N^1-(5,6-dimethylthieno[2,3-d]pyrimidin-4-yl)cyclohexane-1,4-diamine], the pIC50 in assay [1] was more than 5.30.

As for `NCC1CCN(c2ncnc3sc4c(c23)CCC4)CC1` [Compound I-63], in assay [1], the pIC50 was 4.70 to 5.30. `CN(C)[C@H]1CC[C@H](Nc2ncnc3sc4c(c23)CCCC4)CC1` [Compound I-50, trans-N^1,N^1-dimethyl-N^4-(5,6,7,8-tetrahydrobenzo[4,5]thieno[2,3-d]pyrimidin-4-yl)cyclohexane-1,4-diamine]: the pIC50 in assay [1] was more than 5.30. `CN(Cc1cnccn1)[C@H]1CC[C@H](Nc2ncnc3sc4c(c23)CCC4)CC1` [Compound I-105]: the pIC50 in assay [1] is more than 5.30.

As to `c1nc(N[C@H]2CC[C@H](N3CCOCC3)CC2)c2c3c(sc2n1)CCC3` [Compound I-149, N-((1r,4r)-4-morpholinocyclohexyl)-6,7-dihydro-5H-cyclopenta[4,5]thieno[2,3-d]pyrimidin-4-amine], the pIC50 in assay [1] was more than 5.30. Same read-out and setting: then `N[C@H]1CC[C@@H](Nc2ncnc3sc4c(c23)CCC4)CC1` [Compound I-154, (1s,4s)-N1-(6,7-dihydro-5H-cyclopenta[4,5]thieno[2,3-d]pyrimidin-4-yl)cyclohexane-1,4-diamine], with 4.70 to 5.30; and `CC1(C)CCc2sc3ncnc(N[C@H]4CC[C@H](N)CC4)c3c2C1` [Compound I-38, trans-N^1-(6,6-dimethyl-5,6,7,8-tetrahydrobenzo[4,5]thieno[2,3-d]pyrimidin-4-yl)cyclohexane-1,4-diamine], with more than 5.30. Consider `CN(C(=O)Cc1cccc(Cl)c1)[C@H]1CC[C@H](Nc2ncnc3sc4c(c23)CCC4)CC1` [Compound I-102, 2-(3-chlorophenyl)-N-methyl-N-[4-([7-thia-9,11-diazatricyclo[6.4.0.0^[2,6]]dodeca-1(8),2(6),9,11-tetraen-12-yl]amino)cyclohexyl]acetamide], for which the negative logarithm of the IC50 (pIC50) in assay [1] was 4.30 to 4.70. As for `CCC(C)c1ccc(S(=O)(=O)N2CCN(c3ncnc4sc5c(c34)CCC(C)C5)CC2)cc1` (stereo not shown) [Compound I-24], in assay [1], the pIC50 is less than 4.30. As to `C[C@@H]1CCc2sc3ncnc(N4CCC(C(N)=O)CC4)c3c2C1` [Compound I-45], the pIC50 in assay [1] was 4.70 to 5.30. The same measure, in the same setting: then `CN(Cc1cccc(CO)c1)[C@H]1CC[C@H](Nc2ncnc3sc4c(c23)CCC4)CC1` [Compound I-165, [3-([methyl[4-([7-thia-9,11-diazatricyclo[6.4.0.0^[2,6]]dodeca-1(8),2(6),9,11-tetraen-12-yl]amino)cyclohexyl]amino]methyl)phenyl]methanol], with more than 5.30. With `CC1CCc2sc3ncnc(N[C@H]4CC[C@H](O)CC4)c3c2C1` (relative stereo) [Compound I-37, trans-4-((6-methyl-5,6,7,8-tetrahydrobenzo[4,5]thieno[2,3-d]pyrimidin-4-yl)amino)cyclohexanol], in assay [1], the pIC50 is 4.70 to 5.30. Still for that read-out and setting: the same measure for `CN(Cc1ccncc1F)[C@H]1CC[C@H](Nc2ncnc3sc4c(c23)CCC4)CC1` [Compound I-111, 1-N-[(3-fluoropyridin-4-yl)methyl]-1-N-methyl-4-N-[7-thia-9,11-diazatricyclo[6.4.0.0^[2,6]]dodeca-1(12),2(6),8,10-tetraen-12-yl]cyclohexane-1,4-diamine]: more than 5.30; for `Cc1sc2ncnc(N3CCC(C(=O)Nc4cc(Cl)ccc4Cl)CC3)c2c1C` [Compound I-32]: 4.70 to 5.30.

Values taken from US9340554B2, “IRAK inhibitors and uses thereof” (Nimbus Iris, Inc., priority 2011, dated 2016).
